Data published in patent US20240294551A1 (AMGEN INC., priority 2022, published 2024).
Where two headings read alike, the source gives them in different places.

Conditions: 16-membered ring

CC(C)(C)OC(=O)n1ncc2c3c(ccc21)OCCCC(=O)O[C@@H]1CCCN(C1)c1nc(OC[C@@]24CCCN2C[C@H](F)C4)nc2c(F)c-3ncc12
ring closure, isolated yield (from CC(C)(C)OC(=O)n1ncc2c(-c3ncc4c(N5CCC[C@@H](OC(=O)CCCBr)C5)nc(OC[C@@]56CCCN5C[C@H](F)C6)nc4c3F)c(O)ccc21, ether bond, K2CO3, DMF, 17.5 mM): 24%

Cc1cc2c(cnn2C2CCCCO2)c2c1CC=CCOC[C@@H]1CCCN(C1)c1nc(OC[C@@]34CCCN3C[C@H](F)C4)nc3c(F)c-2ncc13 (mixture of isomers)
ring closure, isolated yield (from C=CCOC[C@@H]1CCCN(c2nc(OC[C@@]34CCCN3C[C@H](F)C4)nc3c(F)c(-c4c(CC=C)c(C)cc5c4cnn5C4CCCCO4)ncc23)C1, rcm bond, Hoveyda-Grubbs II/TsOH, 1,2-dichloroethane, 2.1 mM, 80.0 °C): 21%

Cc1cc2c(cnn2C2CCCCO2)c2c1CCC=CCCC1(O)CCCN(C1)c1nc(OC[C@@]34CCCN3C[C@H](F)C4)nc3c(F)c-2ncc13 (stereo partly drawn)
ring closure, isolated yield (from C=CCCc1c(C)cc2c(cnn2C2CCCCO2)c1-c1ncc2c(N3CCCC(O)(CCC=C)C3)nc(OC[C@@]34CCCN3C[C@H](F)C4)nc2c1F, rcm bond, Hoveyda-Grubbs II (20 mol%)/TsOH, DCE, 1.6 mM, 80.0 °C): 71%
